Laboratory results from patent US10167262B2, “Herbicidal substituted 3-arylpyrazoles” (FMC CORPORATION, priority 2014, dated 2019).

Columns and labels:
Assay in all cases: Test C pre-/postemergence greenhouse test, plant response rating 0-100
Assay type in all cases: in vivo
[1] = test system: velvetleaf (Abutilon theophrasti)
Method in brief: (§1)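 Greenhouse test. Preemergence: seed in loam:sand, sprayed with formulated chemical (solvent + surfactant). Postemergence: 1–4 leaf plants, 2–18 cm, peat-based potting medium. Hold 13–15 d; score visually, 0 (none) to 100 (complete control); dash = not tested.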

soybean (Glycine max) = test system: soybean (Glycine max)
Method in brief: as §1

[2] = test system: yellow nutsedge (Cyperus esculentus)
Method in brief: as §1

[3] = test system: large (Lg) crabgrass (Digitaria sanguinalis)
Method in brief: as §1

[4] = test system: galium (catchweed bedstraw, Galium aparine)
Method in brief: as §1

[5] = test system: lambsquarters (Chenopodium album)
Method in brief: as §1

[6] = test system: pigweed (Amaranthus retroflexus)
Method in brief: as §1

[7] = test system: morningglory (Ipomoea coccinea)
Method in brief: as §1

[8] = test system: giant foxtail (Setaria faberii)
Method in brief: as §1

[9] = test system: winter wheat (Triticum aestivum)
Method in brief: as §1

[10] = test system: Italian ryegrass (Lolium multiflorum)
Method in brief: as §1

corn (Zea mays) = test system: corn (Zea mays)
Method in brief: as §1

[11] = test system: johnsongrass (Sorghum halepense)
Method in brief: as §1

[12] = Postemergence, 250 g ai/ha, scale 0 to 100
[13] = Postemergence, 500 g ai/ha, scale 0 to 100

## O=C(c1cncc(F)c1)c1c[nH]nc1-c1cc(Cl)cc(Cl)c1 [Compound 19]
[1]; Postemergence, 62 g ai/ha
  Plant response rating (0 to 100), Velvetleaf: 25
[1]; Postemergence, 125 g ai/ha
  Plant response rating (0 to 100), Velvetleaf: 40
[1]; [12]
  Plant response rating, Velvetleaf: 55
[1]; Preemergence, 62 g ai/ha
  Plant response rating, Velvetleaf: 40
[1]; Preemergence, 125 g ai/ha
  Plant response rating, Velvetleaf: 75
[1]; Preemergence, 250 g ai/ha
  Plant response rating, Velvetleaf: 98
Soybean (Glycine max); Postemergence, 62 g ai/ha
  Plant response rating (0 to 100), Soybean: 0
Soybean (Glycine max); Postemergence, 125 g ai/ha
  Plant response rating (0 to 100), Soybean: 0
Soybean (Glycine max); [12]
  Plant response rating, Soybean: 0
Soybean (Glycine max); Preemergence, 62 g ai/ha
  Plant response rating, Soybean: 0
Soybean (Glycine max); Preemergence, 125 g ai/ha
  Plant response rating, Soybean: 0
Soybean (Glycine max); Preemergence, 250 g ai/ha
  Plant response rating, Soybean: 85
[2]; Postemergence, 62 g ai/ha
  Plant response rating (0 to 100), Nutsedge, Yellow: 5
[2]; Postemergence, 125 g ai/ha
  Plant response rating (0 to 100), Nutsedge, Yellow: 5
[2]; [12]
  Plant response rating, Nutsedge, Yellow: 5
[2]; Preemergence, 31 g ai/ha
  Plant response rating, Nutsedge, Yellow: 0
[2]; Preemergence, 62 g ai/ha
  Plant response rating, Nutsedge, Yellow: 0
[2]; Preemergence, 125 g ai/ha
  Plant response rating, Nutsedge, Yellow: 0
[2]; Preemergence, 250 g ai/ha
  Plant response rating, Nutsedge, Yellow: 0
[3]; Postemergence, 31 g ai/ha
  Plant response rating (0 to 100), Crabgrass, Large: 0
[3]; Postemergence, 62 g ai/ha
  Plant response rating (0 to 100), Crabgrass, Large: 0
[3]; Postemergence, 125 g ai/ha
  Plant response rating (0 to 100), Crabgrass, Large: 10
[3]; [12]
  Plant response rating, Crabgrass, Large: 10
[3]; Preemergence, 31 g ai/ha
  Plant response rating, Crabgrass, Large: 0
[3]; Preemergence, 62 g ai/ha
  Plant response rating, Crabgrass, Large: 0
[3]; Preemergence, 125 g ai/ha
  Plant response rating, Crabgrass, Large: 0
[3]; Preemergence, 250 g ai/ha
  Plant response rating, Crabgrass, Large: 0
[4]; Postemergence, 31 g ai/ha
  Plant response rating (0 to 100), Galium: 15
[4]; Postemergence, 62 g ai/ha
  Plant response rating (0 to 100), Galium: 40
[4]; Postemergence, 125 g ai/ha
  Plant response rating (0 to 100), Galium: 40
[4]; [12]
  Plant response rating, Galium: 45
[4]; Preemergence, 31 g ai/ha
  Plant response rating, Galium: 0
[4]; Preemergence, 62 g ai/ha
  Plant response rating, Galium: 80
[4]; Preemergence, 125 g ai/ha
  Plant response rating, Galium: 95
[4]; Preemergence, 250 g ai/ha
  Plant response rating, Galium: 100
[5]; Postemergence, 62 g ai/ha
  Plant response rating (0 to 100), Lambsquarters: 10
[5]; Postemergence, 125 g ai/ha
  Plant response rating (0 to 100), Lambsquarters: 15
[5]; [12]
  Plant response rating, Lambsquarters: 10
[5]; Preemergence, 31 g ai/ha
  Plant response rating, Lambsquarters: 100
[5]; Preemergence, 62 g ai/ha
  Plant response rating, Lambsquarters: 100
[5]; Preemergence, 125 g ai/ha
  Plant response rating, Lambsquarters: 100
[5]; Preemergence, 250 g ai/ha
  Plant response rating, Lambsquarters: 100
[6]; Postemergence, 62 g ai/ha
  Plant response rating (0 to 100), Pigweed: 85
[6]; Postemergence, 125 g ai/ha
  Plant response rating (0 to 100), Pigweed: 90
[6]; [12]
  Plant response rating, Pigweed: 95
[6]; Preemergence, 31 g ai/ha
  Plant response rating, Pigweed: 75
[6]; Preemergence, 62 g ai/ha
  Plant response rating, Pigweed: 85
[6]; Preemergence, 125 g ai/ha
  Plant response rating, Pigweed: 100
[6]; Preemergence, 250 g ai/ha
  Plant response rating, Pigweed: 100
[7]; Postemergence, 62 g ai/ha
  Plant response rating (0 to 100), Morningglory: 0
[7]; Postemergence, 125 g ai/ha
  Plant response rating (0 to 100), Morningglory: 0
[7]; [12]
  Plant response rating, Morningglory: 0
[7]; Preemergence, 31 g ai/ha
  Plant response rating, Morningglory: 0
[7]; Preemergence, 62 g ai/ha
  Plant response rating, Morningglory: 0
[7]; Preemergence, 125 g ai/ha
  Plant response rating, Morningglory: 0
[7]; Preemergence, 250 g ai/ha
  Plant response rating, Morningglory: 10
[8]; Postemergence, 31 g ai/ha
  Plant response rating (0 to 100), Foxtail, Giant: 0
[8]; Postemergence, 62 g ai/ha
  Plant response rating (0 to 100), Foxtail, Giant: 0
[8]; Postemergence, 125 g ai/ha
  Plant response rating (0 to 100), Foxtail, Giant: 5
[8]; [12]
  Plant response rating, Foxtail, Giant: 5
[8]; Preemergence, 31 g ai/ha
  Plant response rating, Foxtail, Giant: 0
[8]; Preemergence, 62 g ai/ha
  Plant response rating, Foxtail, Giant: 0
[8]; Preemergence, 125 g ai/ha
  Plant response rating, Foxtail, Giant: 0
[8]; Preemergence, 250 g ai/ha
  Plant response rating, Foxtail, Giant: 0
[9]; Postemergence, 62 g ai/ha
  Plant response rating (0 to 100), Wheat: 0
[9]; Postemergence, 125 g ai/ha
  Plant response rating (0 to 100), Wheat: 0
[9]; [12]
  Plant response rating, Wheat: 0
[9]; Preemergence, 62 g ai/ha
  Plant response rating, Wheat: 0
[9]; Preemergence, 125 g ai/ha
  Plant response rating, Wheat: 0
[9]; Preemergence, 250 g ai/ha
  Plant response rating, Wheat: 0
[10]; Postemergence, 62 g ai/ha
  Plant response rating (0 to 100), Ryegrass, Italian: 0
[10]; Postemergence, 125 g ai/ha
  Plant response rating (0 to 100), Ryegrass, Italian: 0
[10]; [12]
  Plant response rating, Ryegrass, Italian: 5
[10]; Preemergence, 62 g ai/ha
  Plant response rating, Ryegrass, Italian: 0
[10]; Preemergence, 125 g ai/ha
  Plant response rating, Ryegrass, Italian: 0
[10]; Preemergence, 250 g ai/ha
  Plant response rating, Ryegrass, Italian: 10
Corn (Zea mays); Postemergence, 31 g ai/ha
  Plant response rating (0 to 100), Corn: 0
Corn (Zea mays); Postemergence, 62 g ai/ha
  Plant response rating (0 to 100), Corn: 0
Corn (Zea mays); Postemergence, 125 g ai/ha
  Plant response rating (0 to 100), Corn: 0
Corn (Zea mays); [12]
  Plant response rating, Corn: 0
Corn (Zea mays); Preemergence, 31 g ai/ha
  Plant response rating, Corn: 0
Corn (Zea mays); Preemergence, 62 g ai/ha
  Plant response rating, Corn: 0
Corn (Zea mays); Preemergence, 125 g ai/ha
  Plant response rating, Corn: 0
Corn (Zea mays); Preemergence, 250 g ai/ha
  Plant response rating, Corn: 0
[11]; Postemergence, 62 g ai/ha
  Plant response rating (0 to 100), Johnsongrass: 0
[11]; Postemergence, 125 g ai/ha
  Plant response rating (0 to 100), Johnsongrass: 0
[11]; [12]
  Plant response rating, Johnsongrass: 0
[11]; Preemergence, 31 g ai/ha
  Plant response rating, Johnsongrass: 0
[11]; Preemergence, 62 g ai/ha
  Plant response rating, Johnsongrass: 0
[11]; Preemergence, 125 g ai/ha
  Plant response rating, Johnsongrass: 0
[11]; Preemergence, 250 g ai/ha
  Plant response rating, Johnsongrass: 0

## Cn1cc(C(=O)c2cccs2)c(-c2cc(Cl)cc(Cl)c2)n1 [Compound 17]
[1]; Postemergence, 62 g ai/ha
  Plant response rating (0 to 100), Velvetleaf: 80
[1]; Postemergence, 125 g ai/ha
  Plant response rating (0 to 100), Velvetleaf: 80
[1]; [12]
  Plant response rating, Velvetleaf: 80
[1]; [13]
  Plant response rating, Velvetleaf: 80
Soybean (Glycine max); Postemergence, 62 g ai/ha
  Plant response rating (0 to 100), Soybean: 0
Soybean (Glycine max); Postemergence, 125 g ai/ha
  Plant response rating (0 to 100), Soybean: 0
Soybean (Glycine max); [12]
  Plant response rating, Soybean: 10
Soybean (Glycine max); [13]
  Plant response rating, Soybean: 15
[2]; Postemergence, 62 g ai/ha
  Plant response rating (0 to 100), Nutsedge, Yellow: 0
[2]; Postemergence, 125 g ai/ha
  Plant response rating (0 to 100), Nutsedge, Yellow: 5
[2]; [12]
  Plant response rating, Nutsedge, Yellow: 5
[2]; [13]
  Plant response rating, Nutsedge, Yellow: 5
[3]; Postemergence, 62 g ai/ha
  Plant response rating (0 to 100), Crabgrass, Large: 0
[3]; Postemergence, 125 g ai/ha
  Plant response rating (0 to 100), Crabgrass, Large: 5
[3]; [12]
  Plant response rating, Crabgrass, Large: 10
[3]; [13]
  Plant response rating, Crabgrass, Large: 15
[4]; Postemergence, 62 g ai/ha
  Plant response rating (0 to 100), Galium: 0
[4]; Postemergence, 125 g ai/ha
  Plant response rating (0 to 100), Galium: 0
[4]; [12]
  Plant response rating, Galium: 0
[4]; [13]
  Plant response rating, Galium: 20
[5]; Postemergence, 62 g ai/ha
  Plant response rating (0 to 100), Lambsquarters: 15
[5]; Postemergence, 125 g ai/ha
  Plant response rating (0 to 100), Lambsquarters: 55
[5]; [12]
  Plant response rating, Lambsquarters: 80
[5]; [13]
  Plant response rating, Lambsquarters: 98
[6]; Postemergence, 62 g ai/ha
  Plant response rating (0 to 100), Pigweed: 75
[6]; Postemergence, 125 g ai/ha
  Plant response rating (0 to 100), Pigweed: 80
[6]; [13]
  Plant response rating, Pigweed: 85
[7]; Postemergence, 62 g ai/ha
  Plant response rating (0 to 100), Morningglory: 5
[7]; Postemergence, 125 g ai/ha
  Plant response rating (0 to 100), Morningglory: 5
[7]; [12]
  Plant response rating, Morningglory: 10
[7]; [13]
  Plant response rating, Morningglory: 15
[8]; Postemergence, 62 g ai/ha
  Plant response rating (0 to 100), Foxtail, Giant: 0
[8]; Postemergence, 125 g ai/ha
  Plant response rating (0 to 100), Foxtail, Giant: 0
[8]; [12]
  Plant response rating, Foxtail, Giant: 5
[8]; [13]
  Plant response rating, Foxtail, Giant: 10
[9]; Postemergence, 62 g ai/ha
  Plant response rating (0 to 100), Wheat: 0
[9]; Postemergence, 125 g ai/ha
  Plant response rating (0 to 100), Wheat: 0
[9]; [12]
  Plant response rating, Wheat: 0
[9]; [13]
  Plant response rating, Wheat: 0
[10]; Postemergence, 62 g ai/ha
  Plant response rating (0 to 100), Ryegrass, Italian: 0
[10]; Postemergence, 125 g ai/ha
  Plant response rating (0 to 100), Ryegrass, Italian: 0
[10]; [12]
  Plant response rating, Ryegrass, Italian: 0
[10]; [13]
  Plant response rating, Ryegrass, Italian: 5
Corn (Zea mays); [13]
  Plant response rating, Corn: 10
[11]; Postemergence, 62 g ai/ha
  Plant response rating (0 to 100), Johnsongrass: 0
[11]; Postemergence, 125 g ai/ha
  Plant response rating (0 to 100), Johnsongrass: 0
[11]; [12]
  Plant response rating, Johnsongrass: 10
[11]; [13]
  Plant response rating, Johnsongrass: 15
